Measurements taken from patent publication US11701371B2, “ENPP1 inhibitors and their use for the treatment of cancer” (THE BOARD OF TRUSTEES OF THE LELAND STANFORD JUNIOR …, priority 2017, dated 2023).
Each block holds one compound with its values, some of them ahead of it.

Legend:
[1] = target: T1, purified recombinant mouse ENPP1 (Mus musculus (Mouse), UniProt P06802); test: ENPP1 enzyme activity assay using 32P cGAMP as a substrate; format: biochemical; conditions: 32P-cGAMP 5 μM, mouse ENPP1 20 nM, pH 7.5, 5 hours
T1 sequence (P06802 whole entry): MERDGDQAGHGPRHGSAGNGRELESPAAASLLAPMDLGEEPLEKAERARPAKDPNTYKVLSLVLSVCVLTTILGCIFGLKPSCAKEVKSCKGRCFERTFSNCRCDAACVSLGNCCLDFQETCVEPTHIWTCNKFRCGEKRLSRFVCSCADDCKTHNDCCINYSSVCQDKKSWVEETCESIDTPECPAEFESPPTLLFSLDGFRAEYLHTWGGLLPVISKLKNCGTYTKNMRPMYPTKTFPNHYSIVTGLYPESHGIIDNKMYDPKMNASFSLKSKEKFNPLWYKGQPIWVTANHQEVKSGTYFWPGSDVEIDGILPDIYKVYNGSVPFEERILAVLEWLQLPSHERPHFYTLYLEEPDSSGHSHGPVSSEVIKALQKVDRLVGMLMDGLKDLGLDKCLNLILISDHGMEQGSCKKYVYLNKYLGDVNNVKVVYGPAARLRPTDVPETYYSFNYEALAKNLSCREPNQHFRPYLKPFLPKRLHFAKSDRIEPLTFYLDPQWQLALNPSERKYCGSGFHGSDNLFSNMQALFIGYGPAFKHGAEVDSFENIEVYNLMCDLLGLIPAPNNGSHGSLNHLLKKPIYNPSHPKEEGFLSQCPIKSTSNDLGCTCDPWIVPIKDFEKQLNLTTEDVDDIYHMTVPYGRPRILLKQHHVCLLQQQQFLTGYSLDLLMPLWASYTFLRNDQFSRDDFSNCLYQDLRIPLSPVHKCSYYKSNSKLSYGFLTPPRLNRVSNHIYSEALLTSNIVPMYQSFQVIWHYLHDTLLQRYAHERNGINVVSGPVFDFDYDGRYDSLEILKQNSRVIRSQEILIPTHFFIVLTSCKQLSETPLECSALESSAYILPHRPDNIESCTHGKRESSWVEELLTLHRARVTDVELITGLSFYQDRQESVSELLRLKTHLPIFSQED

[2] = target: T1, purified recombinant mouse ENPP1; test: ENPP1 activity assay using TMP-pNP as a substrate; format: biochemical; conditions: TMP-pNP 2 μM, mouse ENPP1 0.5 nM, pH 7.5
Description: Selected compounds of Table 1, Table 2 and other derivatives were prepared and assessed in an ENPP1 activity assay using thymidine monophosphate paranitrophenol (TMP-pNP) as a substrate. Enzyme reactions were prepared with TMP-pNP (2 μM), 5-fold dilutions of ENPP1 inhibitor, and purified recombinant mouse ENPP1 (0.5 nM) in 100 mM Tris, 150 mM NaCl, 2 mM CaCl2, 200 μM ZnCl2, pH 7.5 at room temperature. Reaction progress was monitored by measuring absorbance at 400 nm of paranitrophenolate produced by the reaction for 20 minutes.

4T1-luciferase tumor = 4T1-luciferase tumor model with IR, cGAMP and anti-CTLA-4: tumor volume and survival; format: in vivo, mouse; conditions: single agent intratumoral on day 2, 4 and 7 after 20 Gy IR

IC50 [1]: 0.5 to 5 µM
SMILES: COc1ccc2c(N3CCC(CCP(=O)(O)O)CC3)nc(C)nc2c1 [Compound 12]

IC50 [2]: 0.5 to 5 µM
SMILES: O=P(O)(O)CCC1CCN(c2ncnc3nc[nH]c23)CC1 [Compound 68]

SMILES: Nc1nc2c(ncn2[C@@H]2O[C@@H]3COP(=O)(O)O[C@H]4[C@@H](O)[C@H](n5cnc6c(N)ncnc65)O[C@@H]4COP(=O)(O)O[C@@H]2[C@@H]3O)c(=O)[nH]1 [cGAMP, cyclic guanosine monophosphate-adenosine monophosphate]
tumor shrinkage effect on top of IR treatment (4T1-luciferase tumor): no effect over IR treatment
